By pIC50 is commonly meant the negative decadic logarithm of the IC50, by convention in mol/L. Read a low pIC50 as a high IC50.

This passage reports IC50 results from patent US20110098325A1, “PYRIDINE BENZAMIDES AND PYRAZINE BENZAMIDES USED AS PKD INHIBITORS” (CANCER RESEARCH TECHNOLOGY LIMITED, priority 2006, published 2011).

pIC50: −log10 of the molar value. Where only a bound is given, the exact number is not on record here.

The target in this test is T1, Murine PKD1 kinase domain (Mus musculus, UniProt Q62101).
T1 construct: hexahistidine (pFastBac HTb leader) (N); made in house; host or cells: Sf9 insect cells, baculovirus (Bac-to-Bac HT, pFastBac HTb)
T1 sequence (Q62101 with tags, fused parts or gaps R683W): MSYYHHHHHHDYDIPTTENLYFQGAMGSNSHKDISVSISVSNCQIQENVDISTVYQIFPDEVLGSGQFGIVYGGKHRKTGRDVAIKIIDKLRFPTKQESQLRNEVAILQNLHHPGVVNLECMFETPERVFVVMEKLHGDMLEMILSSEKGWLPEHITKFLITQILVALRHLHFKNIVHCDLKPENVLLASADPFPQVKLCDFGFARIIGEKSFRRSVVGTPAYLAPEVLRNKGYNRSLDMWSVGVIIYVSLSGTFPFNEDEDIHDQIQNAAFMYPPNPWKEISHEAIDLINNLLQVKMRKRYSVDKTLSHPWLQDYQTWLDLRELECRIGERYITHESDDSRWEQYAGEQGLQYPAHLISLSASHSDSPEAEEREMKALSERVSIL
The test can be described thus: PKD1 (Murine Kinase Domain) Enzyme Activity Assay (IMAP fluorescence polarisation). The settings on record: 10 μM ATP, 60 minutes, room temperature. Type of test: biochemical. From the text:
The DNA sequence corresponding to murine PKD1 (see FIG. 1) was inserted into pFastBAc Htb (Invitrogen, USA) at BamH1 and EcoR1 sites using standard molecular biology techniques.
The PKD1 described above was expressed as a hexahistidine tagged protein construct using a commercially available baculoviral expression system that induces protein production in insect cell culture (Bac-to-Bac® HT Baculovirus Expression System, Invitrogen). Protein was typically expressed by inoculating 1 L of sf9 cells with a genetically modified baculovirus containing the gene for the kinase domain of PKD1. Sf9 cells were obtained from ICR Ltd.
Purification of PKD1 was achieved by standard chromatographic procedures. Capture from crude centrifuged lysed cell supernatant was achieved using metal affinity chromatography (GE Healthcare Life Sciences, HiTrap Chelating chromatography column), and fractions showing PKD1 (as assessed by gel electrophoresis and western blot) were further purified by a single polish purification step performed using a mono Q anion exchange chromatography system (GE Healthcare Life Sciences, HiTrap HP Q column). […] This protocol describes the method for screening compounds as inhibitors of Protein Kinase D activity in a 384 well microplate format fluorescence polarisation IMAP assay performed using the Biomek FX.
Kinase Enzyme: Murine PKD1 kinase domain at ˜100 μg/mL, was purified from baculovirus (as described above), obtained from aliquots stored at −70° C. PKD was prepared with a final concentration of 0.1 μg/mL by diluting 1:300 in Reaction Buffer (30 μL per 9 mL-5 mL per plate with an additional 4 mL dead volume) and vortexing prior to use. It was necessary to check this concentration regularly in case of enzyme degradation.
(also known as MAPKAP K2 substrate) was obtained from Molecular Devices (Product code R7127). It was used at 300 nM by diluting 20 μM stock 1:66 in Kinase/Reaction Buffer (135 μL per 9 mL; 75 μL per 5 mL Reaction Buffer for blank wells requiring <1 mL per place with an additional 4 mL dead volume).
A 1 mM ATP stock in Reaction Buffer was prepared from a 10 mM stock in 20 mM NaOH and stored as aliquots at −70° C. It was used at 40 μM by diluting 1 mM stock 1:25 in Reaction Buffer (240 μL per 6 mL-2 mL per plate with an additional 4 mL dead volume) and vortexing prior to use.
IMAP Reagents: IMAP Binding Reagent (product code R7207) and Binding Buffer (product code R7208) were obtained from Molecular Devices and stored at +4° C. The beads were gently re-suspended before diluting by 1:400 in buffer (Binding Buffer is supplied as a 5× stock and so was diluted with water prior to use) and then vortexing before addition to wells. 16 mL water with 4 mL Binding Buffer and 50 μL Binding Reagent were used per plate (17 mL per plate with an additional 3 mL dead volume).
13 μL Substrate in Reaction Buffer was added to ‘blank’ wells to give 200 nM reaction concentration. […] 2 μL 10% DMSO/water was added to ‘blank’ and ‘control’ wells. 5 μL ATP in Reaction Buffer was added to all wells to give 10 μM reaction concentration. The reaction mixture was then incubated at room temperature for 60 minutes. The incubation period was followed by the addition of 40 μL IMAP Binding Reagent in Binding Buffer to all wells. The reaction was then further incubated at room temperature for […].
Percentage inhibition was calculated based on activity of the test sample minus the average values in the blank wells relative to the average values measured in control wells minus the average values in the blank wells.
IC50 values were calculated from 10 point dose sigmoid ‘dose-response’ curves using Xlfit software (IDBS inc, USA). Data were fitted to a 4 parameter logistic model/sigmoidal dose response:
where: A=fit minimum (locked to 0); B=fit maximum (locked to 100); C=fit midpoint (pre-fit to 1); D=slope at linear portion of curve, hillslope (pre-fit to 0.1)
In turn, `CN(C)CCNC(=O)c1cccc(-c2cnc(N)c(-c3ccc(C(C)(C)C)cc3)c2)c1` [Y-068, 3-[6-Amino-5-(4-tert-butyl-phenyl)-pyridin-3-yl]-N-(2-dimethylamino-ethyl)-benzamide] had a pIC50 of more than 6.00. The value for `COc1cc(F)ccc1-c1cc(-c2cccc(C(=O)NCCN(C)C)c2)cnc1N` [Y-054, 3-[6-Amino-5-(4-fluoro-2-methoxy-phenyl)-pyridin-3-yl]-N-(2-dimethylamino-ethyl)-benzamide] was 5.00 to 6.00; that for `CN(C)CCNC(=O)c1cccc(-c2cnc(N)c(-c3cccc(-c4ccccc4)c3)c2)c1` [Y-013, 3-(6-Amino-5-biphenyl-3-yl-pyridin-3-yl)-N-(2-dimethylamino-ethyl)-benzamide] was more than 6.00; that for `CN(C)CCNC(=O)c1cccc(-c2cnc(N)c(-c3ccc4c(ccn4C)c3)c2)c1` [Y-027, 3-[6-Amino-5-(1-methyl-1H-indol-5-yl)-pyridin-3-yl]-N-(2-dimethylamino-ethyl)-benzamide] was more than 6.00. The value for `CN(C)CCNC(=O)c1cccc(-c2cnc(N)c(-c3ccc(OCc4ccccc4)cc3)c2)c1` [Y-051, 3-[6-Amino-5-(4-benzyloxy-phenyl)-pyridin-3-yl]-N-(2-dimethylamino-ethyl)-benzamide] was more than 6.00; that for `CN(C)CCNC(=O)c1cccc(-c2cnc(N)c(-c3cccc4c3oc3ccccc34)n2)c1` [X-012, 3-(5-Amino-6-dibenzofuran-4-yl-pyrazin-2-yl)-N-(2-dimethylamino-ethyl)-benzamide] was more than 6.00. The compound `CN(C)CCNC(=O)c1cccc(-c2cnc(N)c(-c3cc(Cl)cc(Cl)c3)c2)c1` [Y-037, 3-[6-Amino-5-(3,5-dichloro-phenyl)-pyridin-3-yl]-N-(2-dimethylamino-ethyl)-benzamide] gave a pIC50 of more than 6.00. The value for `CN(C)CCNC(=O)c1cccc(-c2cnc(N)c(-c3ccc(C(=O)c4ccccc4)cc3)c2)c1` [Y-070, 3-[6-Amino-5-(4-benzoyl-phenyl)-pyridin-3-yl]-N-(2-dimethylamino-ethyl)-benzamide] was more than 6.00; that for `COc1cc(-c2cncc(-c3cccc(C(=O)NCCN)c3)n2)ccc1O` [X-021, N-(2-Amino-ethyl)-3-[6-(4-hydroxy-3-methoxy-phenyl)-pyrazin-2-yl]-benzamide] was more than 6.00.

Compound `CN(C)CCNC(=O)c1cccc(-c2cnc(N)c(-c3ccc4nccnc4c3)c2)c1` [Y-091, 3-(6-Amino-5-quinoxalin-6-yl-pyridin-3-yl)-N-(2-dimethylamino-ethyl)-benzamide] showed a pIC50 of more than 6.00. `CN(C)CCNC(=O)c1cccc(-c2cnc(N)c(-c3ccoc3)c2)c1` [Y-017, 3-(6-Amino-5-furan-3-yl-pyridin-3-yl)-N-(2-dimethylamino-ethyl)-benzamide] gave a pIC50 of more than 6.00. To `CNc1ncc(-c2cccc(C(=O)NCCN(C)C)c2)cc1-c1cccc(OC)c1` [Y-074, N-(2-Dimethylamino-ethyl)-3-[5-(3-methoxy-phenyl)-6-methylamino-pyridin-3-yl]-benzamide] belongs more than 6.00; to `COc1ccccc1-c1cc(-c2cccc(C(N)=O)c2)cnc1N` [Y-002, 3-[6-Amino-5-(2-methoxy-phenyl)-pyridin-3-yl] benzamide], 5.00 to 6.00. The value for `CN(C)CCNC(=O)c1cccc(-c2cnc(N)c(-c3ccc4[nH]ccc4c3)c2)c1` [Y-026, 3-[6-Amino-5-(1H-indol-5-yl)-pyridin-3-yl]-N-(2-dimethylamino-ethyl)-benzamide] was more than 6.00; that for `COc1cc(-c2nc(-c3cccc(C(=O)NCCN(C)C)c3)cnc2N)ccn1` [X-024, 3-[5-Amino-6-(2-methoxy-pyridin-4-yl)-pyrazin-2-yl]-N-(2-dimethylamino-ethyl)-benzamide] was more than 6.00. To `COc1cc(-c2cc(-c3cccc(C(N)=O)c3)cnc2N)ccc1F` [Y-055, 3-[6-Amino-5-(4-fluoro-3-methoxy-phenyl)-pyridin-3-yl]-benzamide] belongs more than 6.00.
